The pIC50 is the IC50 on a negative log10 scale, so that one unit is a factor of ten. Low values mean a large IC50, high ones a small IC50.

pIC50: −log10 of the molar value.

The assay relates to U-937/GTB. In words: Cytotoxicity against human U937/GTB cells after 72 hrs by fluorometric microculture cytotoxicity assay. The assay is classed as functional, cell-based.
Turning to `COc1cccc2c1C(=O)c1c(O)c3c(c(O)c1C2=O)C[C@@](O)(C(=O)CO)C[C@@H]3O[C@H]1C[C@H](N)[C@H](O)[C@H](C)O1` [DOXORUBICIN], the negative logarithm of the IC50 (pIC50) is 6.80.

`CC[C@H](C)[C@@H]1NC(=O)[C@@H]2CCCN2C(=O)[C@H](Cc2c[nH]c3ccccc23)NC(=O)[C@H](CO)NC(=O)[C@@H]2CSSC[C@@H]3NC(=O)[C@H]([C@@H](C)O)NC(=O)[C@H](CCC(=O)O)NC(=O)CNC(=O)[C@@H]4CSSC[C@H](NC(=O)CNC(=O)[C@@H]5CCCN5C(=O)[C@H]([C@@H](C)O)NC(=O)[C@H](CC(N)=O)NC(=O)[C@H](CSSC[C@H](NC1=O)C(=O)N[C@@H]([C@@H](C)O)C(=O)N[C@@H](CCCNC(=N)N)C(=O)N[C@@H](CC(N)=O)C(=O)NCC(=O)N[C@@H](CC(C)C)C(=O)N1CCC[C@H]1C(=O)N[C@@H](C(C)C)C(=O)N4)NC(=O)[C@H]([C@@H](C)O)NC(=O)CNC(=O)CNC(=O)[C@H](C)NC3=O)C(=O)N[C@@H](CO)C(=O)N2` showed a negative logarithm of the IC50 (pIC50) of 5.12. The compound `CC(C)C[C@@H]1NC(=O)CNC(=O)[C@H](CC(N)=O)NC(=O)[C@H](CCCNC(=N)N)NC(=O)[C@H]([C@@H](C)O)NC(=O)[C@@H]2CSSC[C@@H]3NC(=O)[C@H]([C@@H](C)O)NC(=O)CNC(=O)CNC(=O)[C@H](Cc4ccccc4)NC(=O)[C@@H]4CSSC[C@H](NC(=O)[C@H]([C@@H](C)O)NC(=O)[C@H](CSSC[C@H](NC(=O)[C@H](C(C)C)NC(=O)[C@@H]5CCCN5C1=O)C(=O)NCC(=O)N[C@@H](CCC(=O)O)C(=O)N[C@H]([C@@H](C)O)CN4)NC(=O)CNC(=O)[C@@H]1CCCN1C(=O)[C@H]([C@@H](C)O)NC(=O)[C@H](CC(N)=O)NC3=O)C(=O)N[C@@H](CC(=O)O)C(=O)N1CCC[C@H]1C(=O)N[C@@H](Cc1c[nH]c3ccccc13)C(=O)N1CCC[C@H]1C(=O)N[C@@H](C(C)C)C(=O)N2` gave a negative logarithm of the IC50 (pIC50) of 5.59.

Source of the values: ChEMBL document CHEMBL2040805, “Cyclotides from an extreme habitat: characterization of cyclic peptides from Viola abyssinica of the Ethiopian highlands” (J Nat Prod, 2011).
